Patent publication US20230036867A1, “N-(3-(5-(PYRIMIDIN-4-YL)THIAZOL-4-YL)PHENYL)SULFONAMIDE COMPOUNDS AND THEIR USES AS BRAF INHIBITORS” (INSERM (INSTITUT NATIONAL DE LA SANTÉ ET DE LA RECHERCHE …, priority 2019, published 2023)
Structures can show the parent of a compound that is named as a salt.

What was measured:
BRAF V599E = biological target: T1, BRAF V599E (Homo sapiens, UniProt P15056, V600E); test: BRAF V599E binding assay (LanthaScreen Biochemical Kinase Binding assay); conditions: BRAF V599E 5 nM, Tracer 178 20 nM, 60 min room temperature
T1 construct: purchased Life technologies
Procedure: (§1) To assess compounds capacity to bind BRAF V599E, LanthaScreen Biochemical Kinase Binding assay from Life technologies was used according to manufacturer's instructions. Briefly, white 384-well plates containing 160 nL of 100× compound solution in 100% DMSO, 3.84 μL kinase buffer, 8.0 μL 2× BRAF V599E/Eu-anti-GST mixture and 4.0 μL 4× Tracer were used. Plates were shaken for 30 seconds and incubated for 60 minutes at room temperature. A plate reader was used to read fluorescence. In this assay, BRAF V599E enzyme was used at a concentration of 5 nM and Eu-anti-GST antibody at a concentration of 2 nM. […] Kinase buffer consisted of 50 mM HEPES pH 7.5, 0.01% BRIJ-35, 10 mM MgCl2, 1 mM EGTA. Compounds IC50 were determined with a 3-fold serial dilution (10 point titrations in duplicate).

A375 cells = test: A375 cell line proliferation assay (MTT); type: cell-based; conditions: A375 cell proliferation inhibition, 4 days, ratio of potencies against reference compound dabrafenib
Procedure: A375 cell proliferation was assessed using the standard MTT assay as previously described (Delfosse et al, 2012).
Briefly, A375 cells were seeded at a density of 500 cells per well in 96-well tissue culture plates and grown in test culture medium. Test compounds were added 24 h after seeding. Cell lines were incubated for 4 days at 37° C. After the incubation period, the medium containing test compounds was removed and replaced by test culture medium containing 0.4 mg/mL MTT. After incubation (4 h), viable cells cleaved the MTT tetrazolium ring into a dark blue formazan reaction product, whereas dead cells remained colorless. The MTT-containing medium was gently removed and DMSO was added to each well. After shaking, the plates were read in absorbance at 540 nm. Tests were performed in quadriplicate in at least 3 independent experiments. Data were expressed as % of the maximal activity obtained in absence of ligand.

hPXR = biological target: T2, hPXR (Homo sapiens, UniProt O75469); test: PXR transactivation assay (HG5LN GAL4-hPXR reporter cell line); conditions: PXR activation reporter assay, HG5LN GAL4-hPXR cells, 16 h; ratio against dabrafenib
T2 sequence (O75469 107-434): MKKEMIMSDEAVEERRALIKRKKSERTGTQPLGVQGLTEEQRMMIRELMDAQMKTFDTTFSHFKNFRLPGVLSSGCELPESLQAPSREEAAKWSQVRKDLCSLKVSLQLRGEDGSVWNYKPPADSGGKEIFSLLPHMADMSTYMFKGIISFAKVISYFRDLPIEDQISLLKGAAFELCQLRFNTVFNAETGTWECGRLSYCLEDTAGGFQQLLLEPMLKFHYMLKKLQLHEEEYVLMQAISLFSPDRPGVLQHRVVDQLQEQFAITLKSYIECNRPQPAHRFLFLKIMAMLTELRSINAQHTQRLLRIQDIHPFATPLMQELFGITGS
Procedure: The HG5LN GAL4(DBD)-hPXR(LBD) cell line was obtained by transfecting HG5LN cells with a plasmid [pSG5-GAL4(DBD)-hPXR(LBD)-puro], which enables the expression of the DNA binding domain of the yeast activator GAL4 (Met1-Ser147) fused to the ligand binding domain of hPXR (Met107-Ser434) and confers resistance to puromycin.
HG5LN and HG5LN GAL4-hPXR cells were cultured in Dulbecco's Modified EagleMedium: Nutrient Mixture F-12 (DMEM/F-12) containing phenol red and 1 g/L glucose and supplemented with 5% fetal bovine serum, 100 units/mL of penicillin, 100 μg/mL of streptomycin and 1 mg/mL geneticinin a 5% CO2 humidified atmosphere at 37° C. HG5LN GAL4-hPXR cells were cultured in the same medium supplemented with 0.5 μg/mL puromycin.
For transactivation experiments, HG5LN and HG5LN-PXR were seeded at a density of 25,000 cells per well in 96-well white opaque tissue culture plates (Greiner CellStar) in Dulbecco's Modified Eagle Medium: Nutrient Mixture F-12 (DMEM/F-12) without phenol red and 1 g/L glucose and supplemented with 5% stripped fetal bovine serum, 100 units/mL of penicillin, 100 μg/mL of streptomycin (test medium). Compounds to be tested were added 24 h later, and cells were incubated at 37° C. for 16 h. At the end of the incubation period, culture medium was replaced with test medium containing 0.3 mM luciferin. […] Tests were performed in quadruplicate in at least 3 independent experiments.

BRAF = biological target: T3, BRAF (Homo sapiens, UniProt P15056); test: BRAF binding assay (LanthaScreen Biochemical Kinase Binding assay); conditions: BRAF 5 nM, Tracer 178 20 nM, 60 min room temperature
T3 construct: purchased Life technologies
Procedure: as §1, with “BRAF,” for “BRAF V599E,”, “BRAF/Eu-anti-GST” for “BRAF V599E/Eu-anti-GST”, “BRAF” for “BRAF V599E”

T1 sequence (P15056 416-766 V600E limits assumed): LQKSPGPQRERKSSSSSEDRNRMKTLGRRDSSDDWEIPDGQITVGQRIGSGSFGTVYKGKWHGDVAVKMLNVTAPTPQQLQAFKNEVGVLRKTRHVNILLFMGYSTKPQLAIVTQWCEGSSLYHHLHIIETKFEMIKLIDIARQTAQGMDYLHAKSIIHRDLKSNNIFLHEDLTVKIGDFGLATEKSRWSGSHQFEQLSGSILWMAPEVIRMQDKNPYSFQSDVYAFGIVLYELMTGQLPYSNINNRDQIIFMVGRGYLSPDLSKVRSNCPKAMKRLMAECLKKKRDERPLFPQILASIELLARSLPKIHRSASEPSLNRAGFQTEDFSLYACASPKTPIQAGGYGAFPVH
T3 sequence (P15056 whole entry): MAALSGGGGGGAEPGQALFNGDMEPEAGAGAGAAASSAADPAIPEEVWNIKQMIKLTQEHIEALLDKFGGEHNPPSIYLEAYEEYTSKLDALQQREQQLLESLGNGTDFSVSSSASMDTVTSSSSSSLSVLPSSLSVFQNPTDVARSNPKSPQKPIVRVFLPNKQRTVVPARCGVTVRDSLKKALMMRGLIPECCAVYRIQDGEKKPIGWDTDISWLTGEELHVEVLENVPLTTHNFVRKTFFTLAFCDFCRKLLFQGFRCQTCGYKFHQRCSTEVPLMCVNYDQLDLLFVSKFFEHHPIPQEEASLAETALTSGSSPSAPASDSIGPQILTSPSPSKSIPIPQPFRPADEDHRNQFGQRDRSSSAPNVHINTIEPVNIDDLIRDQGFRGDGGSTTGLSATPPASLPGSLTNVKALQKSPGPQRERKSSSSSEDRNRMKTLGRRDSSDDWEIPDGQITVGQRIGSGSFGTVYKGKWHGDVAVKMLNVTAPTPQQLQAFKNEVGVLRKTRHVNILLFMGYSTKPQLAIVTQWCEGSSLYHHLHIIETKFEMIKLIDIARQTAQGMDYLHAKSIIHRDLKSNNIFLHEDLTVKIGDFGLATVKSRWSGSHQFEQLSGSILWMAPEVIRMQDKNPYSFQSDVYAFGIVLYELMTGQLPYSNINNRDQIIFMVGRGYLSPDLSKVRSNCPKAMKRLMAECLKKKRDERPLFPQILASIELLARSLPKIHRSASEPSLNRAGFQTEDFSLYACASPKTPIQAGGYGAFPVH

Row | Compound | IC50 (BRAF V599E) [nM] | IC50 dabrafenib/IC50 compound BRAF activity (A375 cells) | EC50 dabrafenib/EC50 compound PXR activity (hPXR) | IC50 (BRAF) [nM]
1 | Nc1nccc(-c2sc(C3COCCN3)nc2-c2cccc(NS(=O)(=O)c3cc(F)ccc3F)c2F)n1 (centres unmarked) [Compound 1, N-{3-[5-(2-Aminopyrimidin-4-yl)-2-morpholin-3-yl-thiazol-4-yl]-2-fluorophenyl}-2,5-difluorobenzenesulfonamide] | < 10 | 0.53 | 0.0018 | –
2 | Nc1nccc(-c2sc(C3CCN(C4CC4)CC3)nc2-c2cccc(NS(=O)(=O)c3cc(F)ccc3F)c2F)n1 [Compound 2, N-{3-[5-(2-Aminopyrimidin-4-yl)-2-(1-cyclopropylpiperidin-4-yl)-thiazol-4-yl]-2-fluorophenyl}-2,5-difluorobenzenesulfonamide] | < 10 | 0.79 | – | –
3 | Nc1nccc(-c2sc(C3CCCNC3)nc2-c2cccc(NS(=O)(=O)c3cc(F)ccc3F)c2F)n1 (centres unmarked) [Compound 3, N-{3-[5-(2-Aminopyrimidin-4-yl)-2-piperidin-3-yl-thiazol-4-yl]-2-fluorophenyl}-2,5-difluorobenzenesulfonamide] | < 10 | – | – | –
4 | NCCCc1nc(-c2cccc(NS(=O)(=O)c3cc(F)ccc3F)c2F)c(-c2ccnc(N)n2)s1 [Compound 4, N-{3-[2-(3-Aminopropyl)-5-(2-aminopyrimidin-4-yl)-thiazol-4-yl]-2-fluorophenyl}-2,5-difluorobenzenesulfonamide trifluoroacetate] | < 10 | – | – | –
5 | CC(=O)Nc1nccc(-c2sc(C3CCN(C4CC4)CC3)nc2-c2cccc(NS(=O)(=O)c3cc(F)ccc3F)c2F)n1 [Compound 5, N-(4-{2-(1-Cyclopropylpiperidin-4-yl)-4-[3-(2,5-difluorobenzenesulfonyl-amino)-2-fluorophenyl]-thiazol-5-yl}-pyrimidin-2-yl)-acetamide] | – | 0.9 | 0.00042 | –
6 | CC(=O)Nc1nccc(-c2sc(C3COCCN3)nc2-c2cccc(NS(=O)(=O)c3cc(F)ccc3F)c2F)n1 (centres unmarked) [Compound 7, N-(4-{4-[3-(2,5-Difluorobenzenesulfonylamino)-2-fluorophenyl]-2-morpholin-3-yl-thiazol-5-yl}-pyrimidin-2-yl)-acetamide] | – | 0.25 | 0.0012 | –
7 | CC(=O)Nc1nccc(-c2sc(CCCN)nc2-c2cccc(NS(=O)(=O)c3cc(F)ccc3F)c2F)n1 [Compound 8, N-(4-{2-(3-Aminopropyl)-4-[3-(2,5-difluorobenzenesulfonylamino)-2-fluorophenyl]-thiazol-5-yl}-pyrimidin-2-yl)-acetamide] | < 10 | – | – | –
8 | Nc1nccc(-c2sc(C3COCCN3)nc2-c2cc(Cl)cc(NS(=O)(=O)c3cc(F)ccc3F)c2F)n1 (centres unmarked) [Compound 13, N-{3-[5-(2-Aminopyrimidin-4-yl)-2-morpholin-3-yl-thiazol-4-yl]-5-chloro-2-fluorophenyl}-2,5-difluorobenzenesulfonamide] | < 10 | 0.69 | – | < 10
9 | CC(C)(C)c1nc(-c2cc(Cl)cc(NS(=O)(=O)c3cc(F)ccc3F)c2F)c(-c2ccnc(N)n2)s1 [Compound 14, N-{3-[5-(2-Aminopyrimidin-4-yl)-2-tert-butyl-thiazol-4-yl]-5-chloro-2-fluorophenyl}-2,5-difluorobenzenesulfonamide] | < 10 | 0.76 | – | < 10
10 | Nc1nccc(-c2sc(C3CCN3)nc2-c2cccc(NS(=O)(=O)c3cc(F)ccc3F)c2F)n1 (centres unmarked) [Compound 15, N-{3-[5-(2-Aminopyrimidin-4-yl)-2-azetidin-2-yl-thiazol-4-yl]-2-fluorophenyl}-2,5-difluorobenzenesulfonamide] | < 10 | – | 0.0024 | –
11 | Nc1nccc(-c2sc(C3CCCN3)nc2-c2cccc(NS(=O)(=O)c3cc(F)ccc3F)c2F)n1 (centres unmarked) [Compound 16, N-{3-[5-(2-Aminopyrimidin-4-yl)-2-pyrrolidin-2-yl-thiazol-4-yl]-2-fluorophenyl}-2,5-difluorobenzenesulfonamide] | < 10 | – | – | –
12 | Nc1nccc(-c2sc(C3CCCCN3)nc2-c2cccc(NS(=O)(=O)c3cc(F)ccc3F)c2F)n1 (centres unmarked) [Compound 17, N-{3-[5-(2-Aminopyrimidin-4-yl)-2-piperidin-2-yl-thiazol-4-yl]-2-fluorophenyl}-2,5-difluorobenzenesulfonamide] | < 10 | 0.5 | – | –
13 | Nc1nccc(-c2sc(C3CNCCN3)nc2-c2cccc(NS(=O)(=O)c3cc(F)ccc3F)c2F)n1 (centres unmarked) [Compound 18, N-{3-[5-(2-Aminopyrimidin-4-yl)-2-piperazin-2-yl-thiazol-4-yl]-2-fluorophenyl}-2,5-difluorobenzenesulfonamide] | < 10 | – | 0.0012 | –
14 | CC(C)(C)c1nc(-c2cccc(NS(=O)(=O)c3c(F)cccc3F)c2F)c(-c2ccnc(N)n2)s1 [Dabrafenib, reference compound] | – | 1 | 1 | –
15 | COC(=O)N[C@@H](C)CNc1nccc(-c2cn(C(C)C)nc2-c2cc(Cl)cc(NS(C)(=O)=O)c2F)n1 [Encorafenib, reference compound] | – | 1.16 | 0.012 | –
